Data reported in PMC9851200, “Multiparameter phenotypic screening for endogenous TFEB and TFE3 translocation identifies novel chemical series modulating lysosome function” (Autophagy, 2022).
Like-named read-outs stand apart in the source and are kept apart here.

Columns and labels:
Assay in all cases: biochemical
Type in all cases: binding
[1] = molecular target: cellular kinases of SH-SY5Y cells (Homo sapiens, UniProt Q13464); conditions: 2µM; SH-SY5Y cells; Labeling Site Other; KLQLELNQER; read-out: KiNativ in-cell binding, % Inhibition, ROCK1
Source text: (§1) As KINOMEscan is an in vitro assay, and as different cell types have variable kinase expression profiles we sought to determine the kinase binding profile in our SH-SY5Y TFEB-relocalization cell model. […] Bound kinases were pulled down and analyzed by mass spectrometry to determine the in situ kinase binding profile for each compound.

[2] = molecular target: T1, cellular kinases of SH-SY5Y cells (Homo sapiens, UniProt Q8NB16); conditions: 2µM; SH-SY5Y cells; labeling site Lys1; peptide APVAIKVFK
T1 construct: endogenous in cells; host or cells: SH-SY5Y
Source text: as §1

[3] = molecular target: T2, cellular kinases of SH-SY5Y cells (Homo sapiens, UniProt Q96GX5); conditions: 2µM, SH-SY5Y cells, read-out: KiNativ in-cell binding, % Inhibition, MASTL
T2 construct: endogenous in cells; host or cells: SH-SY5Y
T2 sequence (Q96GX5 whole entry): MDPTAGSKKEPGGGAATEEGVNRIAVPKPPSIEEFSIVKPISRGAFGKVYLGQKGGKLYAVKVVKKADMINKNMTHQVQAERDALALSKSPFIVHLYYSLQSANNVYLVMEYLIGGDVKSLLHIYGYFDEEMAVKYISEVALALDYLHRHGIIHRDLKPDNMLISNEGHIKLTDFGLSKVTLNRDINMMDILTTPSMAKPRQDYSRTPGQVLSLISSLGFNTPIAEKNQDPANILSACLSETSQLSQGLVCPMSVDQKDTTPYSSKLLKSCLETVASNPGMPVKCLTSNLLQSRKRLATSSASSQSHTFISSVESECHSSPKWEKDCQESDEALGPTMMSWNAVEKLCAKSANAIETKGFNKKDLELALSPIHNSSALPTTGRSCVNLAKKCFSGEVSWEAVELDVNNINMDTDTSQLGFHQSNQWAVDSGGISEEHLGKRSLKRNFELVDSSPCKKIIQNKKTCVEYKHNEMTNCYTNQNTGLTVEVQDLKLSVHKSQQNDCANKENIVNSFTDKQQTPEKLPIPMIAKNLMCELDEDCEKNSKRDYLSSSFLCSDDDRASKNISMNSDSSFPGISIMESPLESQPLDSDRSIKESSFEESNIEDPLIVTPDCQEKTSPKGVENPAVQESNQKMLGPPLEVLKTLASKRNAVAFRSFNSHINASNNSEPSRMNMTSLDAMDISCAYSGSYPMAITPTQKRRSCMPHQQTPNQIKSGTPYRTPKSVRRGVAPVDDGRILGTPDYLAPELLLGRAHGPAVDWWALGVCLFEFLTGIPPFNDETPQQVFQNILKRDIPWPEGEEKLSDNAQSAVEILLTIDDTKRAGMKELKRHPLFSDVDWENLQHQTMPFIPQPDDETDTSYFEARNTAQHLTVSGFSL
Source text: as §1

[4] = molecular target: T3, cellular kinases of SH-SY5Y cells (Homo sapiens, UniProt Q9UBF8); conditions: 2µM, SH-SY5Y cells, Labeling Site ATP, read-out: KiNativ in-cell binding, % Inhibition, PI4KB
T3 construct: endogenous in cells; host or cells: SH-SY5Y
T3 sequence (Q9UBF8 whole entry): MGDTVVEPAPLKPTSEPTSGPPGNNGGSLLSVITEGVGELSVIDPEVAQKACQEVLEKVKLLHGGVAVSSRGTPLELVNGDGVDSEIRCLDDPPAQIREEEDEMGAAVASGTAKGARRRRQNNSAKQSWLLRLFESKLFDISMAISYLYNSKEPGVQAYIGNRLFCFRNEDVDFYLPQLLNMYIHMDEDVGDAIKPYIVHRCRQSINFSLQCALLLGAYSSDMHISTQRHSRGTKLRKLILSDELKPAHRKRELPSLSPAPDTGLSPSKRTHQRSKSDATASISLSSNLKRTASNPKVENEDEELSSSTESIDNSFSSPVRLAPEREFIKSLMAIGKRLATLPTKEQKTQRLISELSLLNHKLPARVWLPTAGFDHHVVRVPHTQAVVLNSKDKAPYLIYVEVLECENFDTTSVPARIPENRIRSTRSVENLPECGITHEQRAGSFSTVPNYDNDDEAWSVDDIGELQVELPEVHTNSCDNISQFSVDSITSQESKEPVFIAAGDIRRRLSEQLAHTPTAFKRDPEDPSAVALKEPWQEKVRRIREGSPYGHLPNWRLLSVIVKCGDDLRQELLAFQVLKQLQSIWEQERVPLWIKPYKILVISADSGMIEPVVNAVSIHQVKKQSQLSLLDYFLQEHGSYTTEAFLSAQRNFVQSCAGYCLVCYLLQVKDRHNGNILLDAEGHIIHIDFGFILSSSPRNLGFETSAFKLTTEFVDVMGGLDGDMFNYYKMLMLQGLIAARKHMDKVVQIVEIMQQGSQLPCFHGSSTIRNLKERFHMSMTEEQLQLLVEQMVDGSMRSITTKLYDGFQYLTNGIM
Source text: as §1

[5] = molecular target: T4, cellular kinases of SH-SY5Y cells (Homo sapiens, UniProt Q13418); conditions: 2µM, SH-SY5Y cells
T4 construct: endogenous in cells; host or cells: SH-SY5Y
T4 sequence (Q13418 whole entry): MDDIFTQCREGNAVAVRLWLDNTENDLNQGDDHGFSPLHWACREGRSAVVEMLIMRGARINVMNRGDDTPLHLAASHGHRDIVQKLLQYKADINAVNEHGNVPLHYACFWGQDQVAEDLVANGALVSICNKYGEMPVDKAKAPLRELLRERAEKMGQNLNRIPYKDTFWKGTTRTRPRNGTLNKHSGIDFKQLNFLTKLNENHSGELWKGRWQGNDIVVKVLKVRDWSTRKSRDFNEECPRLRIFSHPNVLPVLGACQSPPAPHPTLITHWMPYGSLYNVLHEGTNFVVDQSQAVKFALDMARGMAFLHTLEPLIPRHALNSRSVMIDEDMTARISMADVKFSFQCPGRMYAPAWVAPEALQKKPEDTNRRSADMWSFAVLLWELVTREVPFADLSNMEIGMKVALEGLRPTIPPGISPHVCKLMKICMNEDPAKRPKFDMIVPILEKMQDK
Source text: as §1

[6] = molecular target: cellular kinases of SH-SY5Y cells (Homo sapiens, UniProt Q9Y6M4); conditions: 2µM; SH-SY5Y cells; Labeling Site Lys2; DVKPENFLIGRPGNK; read-out: KiNativ in-cell binding, % Inhibition, CSNK1G3
Source text: as §1

[7] = molecular target: cellular kinases of SH-SY5Y cells (Homo sapiens, UniProt P11802); conditions: 2µM; SH-SY5Y cells; Labeling Site Lys2; DLKPENILVTSGGTVK; read-out: KiNativ in-cell binding, % Inhibition, CDK4
cellular kinases of SH-SY5Y cells (Homo sapiens, UniProt P11802), sequence (P11802 whole entry): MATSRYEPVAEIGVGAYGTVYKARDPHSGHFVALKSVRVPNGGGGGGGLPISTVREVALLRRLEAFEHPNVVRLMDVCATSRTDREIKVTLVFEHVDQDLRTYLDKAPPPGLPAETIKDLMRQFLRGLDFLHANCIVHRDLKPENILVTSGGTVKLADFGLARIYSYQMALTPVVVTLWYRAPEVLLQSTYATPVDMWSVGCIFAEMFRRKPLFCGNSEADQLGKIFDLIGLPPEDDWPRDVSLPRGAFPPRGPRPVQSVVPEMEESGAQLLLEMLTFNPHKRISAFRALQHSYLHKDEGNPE
Source text: as §1

[8] = molecular target: cellular kinases of SH-SY5Y cells (Homo sapiens, UniProt Q8TBX8); conditions: 2µM, SH-SY5Y cells, Labeling Site ATP, read-out: KiNativ in-cell binding, % Inhibition, PIP4K2C
cellular kinases of SH-SY5Y cells (Homo sapiens, UniProt Q8TBX8), sequence (Q8TBX8 whole entry): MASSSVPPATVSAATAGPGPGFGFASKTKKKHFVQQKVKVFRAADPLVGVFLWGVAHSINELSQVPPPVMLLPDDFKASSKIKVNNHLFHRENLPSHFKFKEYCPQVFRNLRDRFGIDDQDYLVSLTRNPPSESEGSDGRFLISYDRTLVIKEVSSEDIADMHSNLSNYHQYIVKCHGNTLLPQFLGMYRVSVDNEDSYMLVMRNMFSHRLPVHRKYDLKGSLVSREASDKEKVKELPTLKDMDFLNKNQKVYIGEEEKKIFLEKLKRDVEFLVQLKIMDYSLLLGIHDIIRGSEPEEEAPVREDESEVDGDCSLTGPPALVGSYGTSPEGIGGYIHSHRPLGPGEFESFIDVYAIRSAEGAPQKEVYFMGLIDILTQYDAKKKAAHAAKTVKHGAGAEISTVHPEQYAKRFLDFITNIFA
Source text: as §1

[9] = molecular target: cellular kinases of SH-SY5Y cells (Homo sapiens, UniProt Q9NWZ3); conditions: 2µM, SH-SY5Y cells
cellular kinases of SH-SY5Y cells (Homo sapiens, UniProt Q9NWZ3), sequence (Q9NWZ3 whole entry): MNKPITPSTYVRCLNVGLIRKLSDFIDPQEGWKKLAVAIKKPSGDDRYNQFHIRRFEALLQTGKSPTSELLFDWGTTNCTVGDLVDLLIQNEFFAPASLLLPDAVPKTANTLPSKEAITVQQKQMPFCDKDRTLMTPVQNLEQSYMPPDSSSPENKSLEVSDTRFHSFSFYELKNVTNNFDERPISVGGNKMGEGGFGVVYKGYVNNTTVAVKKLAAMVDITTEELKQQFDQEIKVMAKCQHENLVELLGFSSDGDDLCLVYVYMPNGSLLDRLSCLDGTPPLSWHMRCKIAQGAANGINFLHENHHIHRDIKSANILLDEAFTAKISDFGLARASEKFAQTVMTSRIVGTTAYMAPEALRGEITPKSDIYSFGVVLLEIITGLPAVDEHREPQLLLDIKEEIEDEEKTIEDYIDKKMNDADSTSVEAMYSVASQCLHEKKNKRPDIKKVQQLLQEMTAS
Source text: as §1

[10] = molecular target: T5, cellular kinases of SH-SY5Y cells (Homo sapiens, UniProt P46734); conditions: 2µM, SH-SY5Y cells
T5 sequence (P46734 1-347): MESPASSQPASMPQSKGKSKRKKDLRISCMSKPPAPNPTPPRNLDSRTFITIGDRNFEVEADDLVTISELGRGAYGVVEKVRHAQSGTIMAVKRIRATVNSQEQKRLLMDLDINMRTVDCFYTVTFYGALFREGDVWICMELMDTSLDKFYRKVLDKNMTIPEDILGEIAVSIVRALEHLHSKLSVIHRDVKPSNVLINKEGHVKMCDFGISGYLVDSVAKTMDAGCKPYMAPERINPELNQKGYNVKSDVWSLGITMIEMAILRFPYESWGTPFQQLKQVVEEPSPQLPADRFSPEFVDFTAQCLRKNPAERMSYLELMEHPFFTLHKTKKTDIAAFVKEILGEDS
Source text: as §1

[11] = molecular target: T6, cellular kinases of SH-SY5Y cells (Homo sapiens, UniProt Q15131); conditions: 2µM; SH-SY5Y cells; labeling site Lys2; peptide DLKVSNLLMTDK
T6 construct: endogenous in cells; host or cells: SH-SY5Y
T6 sequence (Q15131 whole entry): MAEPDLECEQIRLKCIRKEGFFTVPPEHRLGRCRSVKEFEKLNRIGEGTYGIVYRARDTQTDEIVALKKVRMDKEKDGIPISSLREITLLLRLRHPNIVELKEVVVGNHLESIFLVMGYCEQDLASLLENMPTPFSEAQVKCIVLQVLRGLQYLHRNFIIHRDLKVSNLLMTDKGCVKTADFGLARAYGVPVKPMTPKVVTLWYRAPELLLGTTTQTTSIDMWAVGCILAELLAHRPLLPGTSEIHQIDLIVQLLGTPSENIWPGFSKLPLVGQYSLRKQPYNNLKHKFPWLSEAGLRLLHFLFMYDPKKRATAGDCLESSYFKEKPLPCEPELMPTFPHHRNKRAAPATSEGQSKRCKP
Source text: as §1

[12] = molecular target: T7, cellular kinases of SH-SY5Y cells (Homo sapiens, UniProt Q9UL54); conditions: 2µM; SH-SY5Y cells; Labeling Site Lys2; DVKAGNILLSEPGLVK; read-out: KiNativ in-cell binding, % Inhibition, TAOK2/TAO2
T7 construct: endogenous in cells; host or cells: SH-SY5Y
Source text: as §1

[13] = molecular target: cellular kinases of SH-SY5Y cells (Homo sapiens, UniProt Q05397); conditions: 2µM, SH-SY5Y cells, read-out: KiNativ in-cell binding, % Inhibition, PTK2/FAK
cellular kinases of SH-SY5Y cells (Homo sapiens, UniProt Q05397), sequence (Q05397 whole entry): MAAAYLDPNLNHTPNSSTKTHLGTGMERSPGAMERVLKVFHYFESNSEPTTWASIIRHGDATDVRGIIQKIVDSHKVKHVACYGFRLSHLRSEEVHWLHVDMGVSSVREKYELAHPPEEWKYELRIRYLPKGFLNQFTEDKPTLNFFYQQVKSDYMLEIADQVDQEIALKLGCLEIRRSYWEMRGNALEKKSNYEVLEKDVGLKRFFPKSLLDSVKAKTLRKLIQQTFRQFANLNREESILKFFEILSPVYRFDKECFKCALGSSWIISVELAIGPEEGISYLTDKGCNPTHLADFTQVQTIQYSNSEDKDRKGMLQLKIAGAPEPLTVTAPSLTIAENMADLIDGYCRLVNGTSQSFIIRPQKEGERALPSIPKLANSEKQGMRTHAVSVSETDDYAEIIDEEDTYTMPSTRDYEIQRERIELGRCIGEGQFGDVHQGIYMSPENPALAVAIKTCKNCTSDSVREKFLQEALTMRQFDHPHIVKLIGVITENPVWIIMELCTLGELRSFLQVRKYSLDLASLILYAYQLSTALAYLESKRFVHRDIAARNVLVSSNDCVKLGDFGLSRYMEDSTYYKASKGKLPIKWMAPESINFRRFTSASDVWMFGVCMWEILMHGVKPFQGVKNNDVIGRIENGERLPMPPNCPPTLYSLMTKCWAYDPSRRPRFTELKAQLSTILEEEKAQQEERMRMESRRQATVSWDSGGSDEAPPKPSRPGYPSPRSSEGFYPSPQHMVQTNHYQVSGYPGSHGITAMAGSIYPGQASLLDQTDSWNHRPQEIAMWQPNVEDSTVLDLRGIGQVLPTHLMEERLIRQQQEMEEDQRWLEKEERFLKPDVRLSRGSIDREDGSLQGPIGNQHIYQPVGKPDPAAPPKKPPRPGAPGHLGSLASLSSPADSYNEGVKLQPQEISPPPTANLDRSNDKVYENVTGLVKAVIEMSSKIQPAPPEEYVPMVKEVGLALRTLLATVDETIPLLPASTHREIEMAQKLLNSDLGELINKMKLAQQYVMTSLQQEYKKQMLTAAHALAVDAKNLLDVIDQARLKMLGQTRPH
Source text: as §1

[14] = molecular target: cellular kinases of SH-SY5Y cells (Homo sapiens, UniProt Q14012); conditions: 2µM; SH-SY5Y cells; labeling site Lys1; peptide LVAIKCIAK
Source text: as §1

[15] = molecular target: T8, cellular kinases of SH-SY5Y cells (Homo sapiens, UniProt P45985); conditions: 2µM, SH-SY5Y cells; for inhibition at 2 µM: read-out: KiNativ in-cell binding, % Inhibition, MAP2K4
T8 sequence (P45985 1-399): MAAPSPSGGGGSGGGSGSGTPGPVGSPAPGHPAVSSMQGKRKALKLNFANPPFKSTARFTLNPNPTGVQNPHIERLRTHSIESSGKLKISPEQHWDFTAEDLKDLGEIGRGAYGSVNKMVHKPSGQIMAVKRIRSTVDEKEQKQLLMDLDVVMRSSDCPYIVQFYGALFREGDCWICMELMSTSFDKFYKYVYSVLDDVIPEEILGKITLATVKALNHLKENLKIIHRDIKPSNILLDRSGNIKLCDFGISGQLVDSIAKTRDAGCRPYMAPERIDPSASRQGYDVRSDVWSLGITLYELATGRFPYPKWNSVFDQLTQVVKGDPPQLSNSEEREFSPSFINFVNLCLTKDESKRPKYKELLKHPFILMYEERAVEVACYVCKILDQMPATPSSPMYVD
Source text: as §1

Cc1cccc(-c2nc(Nc3ccc4ncsc4c3)c3ccccc3n2)n1 [NK140]
inhibition at 2 µM [1]: 1.3%
KiNativ in-cell binding, MLKL [2]: -57.5
inhibition at 2 µM ([3]; Labeling Site ATP Loop, GAFGKVYLGQK): 4.2%
inhibition at 2 µM ([3]; Labeling Site Lys1, LYAVKVVK): -7.7%
inhibition at 2 µM ([4]; LLSVIVKCGDDLRQELLAFQVLK): 29.7%
inhibition at 2 µM ([4]; VPHTQAVVLNSKDK): 32.3%
inhibition at 2 µM ([5]; Labeling Site Protein Kinase Domain, ISMADVKFSFQCPGR, read-out: KiNativ in-cell binding, % Inhibition, ILK): -31.8%
KiNativ in-cell binding, ILK ([5]; labeling site Lys1, peptide WQGNDIVVKVLK): -23.6
inhibition at 2 µM [6]: -29%
inhibition at 2 µM [7]: -19.8%
inhibition at 2 µM ([8]; TLVIKEVSSEDIADMHSNLSNYHQYIVK): -7%
inhibition at 2 µM ([8]; VKELPTLKDMDFLNK): 7.2%
inhibition at 2 µM ([9]; Labeling Site Lys1, GYVNNTTVAVKK, read-out: KiNativ in-cell binding, % Inhibition, IRAK4): -5.5%
KiNativ in-cell binding, IRAK4 ([9]; labeling site Lys2, peptide DIKSANILLDEAFTAK): -14.3
inhibition at 2 µM ([10]; Labeling Site Activation Loop, MCDFGISGYLVDSVAKTMDAGCKPYMAPER, read-out: KiNativ in-cell binding, % Inhibition, MAP2K3): 2.5%
KiNativ in-cell binding, MAP2K3 ([10]; labeling site Lys1, peptide HAQSGTIMAVKR): -144.3
KiNativ in-cell binding, MAP2K3 ([10]; labeling site Lys2, peptide DVKPSNVLINK): -182.7
KiNativ in-cell binding, CDK10 [11]: 3.3
inhibition at 2 µM [12]: 23.9%
inhibition at 2 µM ([13]; Labeling Site Activation Loop, YMEDSTYYKASK): 16.9%
inhibition at 2 µM ([13]; Labeling Site Lys1, CIGEGQFGDVHQGIYMSPENPALAVAIKTCK): 18%
KiNativ in-cell binding, CaMK1 [14]: -56.2
inhibition at 2 µM ([15]; Labeling Site Activation Loop, LCDFGISGQLVDSIAKTR): -2.3%
inhibition at 2 µM ([15]; Labeling Site Lys2, DIKPSNILLDR): 4%
KiNativ in-cell binding, MAP2K4 ([15]; labeling site Lys1, peptide MVHKPSGQIMAVKR): 26.1
